{"source": "patent US10286092B2", "about": "“Detecting a therapeutic cell” (UCL Business PLC, priority 2015, dated 2019)", "molecules": {"B1": {"name": "dhDATopt: truncated hDAT, probably lacking the 49 N-terminal amino acids compared to wild-type hDAT (protein)", "chain": "MSKSKCSVGLMSSVVAPAKEPNAVGPKEVELILVKEQNGVQLTSSTLTNPRQSPVEAQDRETWGKKIDFLLSVIGFAVDLANVWRFPYLCYKNGGGAFLVPYLLFMVIAGMPLFYMELALGQFNREGAAGVWKICPILKGVGFTVILISLYVGFFYNVIIAWALHYLFSSFTTELPWIHCNNSWNSPNCSDAHPGDSSGDSSGLNDTFGTTPAAEYFERGVLHLHQSHGIDDLGPPRWQLTACLVLVIVLLYFSLWKGVKTSGKVVWITATMPYVVLTALLLRGVTLPGAIDGIRAYLSVDFYRLCEASVWIDAATQVCFSLGVGFGVLIAFSSYNKFTNNCYRDAIVTTSINSLTSFSSGFVVFSFLGYMAQKHSVPIGDVAKDGPGLIFIIYPEAIATLPLSSAWAVVFFIMLLTLGIDSAMGGMESVITGLIDEFQLLHRHRELFTLFIVLATFLLSLFCVTNGGIYVFTLLDHFAAGTSILFGVLIEAIGVAWFYGVGQFSDDIQQMTGQRPSLYWRLCWKLVSPCFLLFVVVVSIVTFRPPHYGAYIFPDWANALGWVIATSSMAMVPIYAAYKFCSLPGSFREKLAYAIAPEKDRE", "modifications": "dhDATopt_d protein sequence", "notes": "truncated hDAT, probably lacking the 49 N-terminal amino acids compared to wild-type hDAT"}, "B2": {"name": "hDAToptD313N: hDAT including a D313N mutation (protein, UniProt Q01959 1-620, looked up, variant D313N)", "Sodium-dependent dopamine …": "MSKSKCSVGLMSSVVAPAKEPNAVGPKEVELILVKEQNGVQLTSSTLTNPRQSPVEAQDRETWGKKIDFLLSVIGFAVDLANVWRFPYLCYKNGGGAFLVPYLLFMVIAGMPLFYMELALGQFNREGAAGVWKICPILKGVGFTVILISLYVGFFYNVIIAWALHYLFSSFTTELPWIHCNNSWNSPNCSDAHPGDSSGDSSGLNDTFGTTPAAEYFERGVLHLHQSHGIDDLGPPRWQLTACLVLVIVLLYFSLWKGVKTSGKVVWITATMPYVVLTALLLRGVTLPGAIDGIRAYLSVDFYRLCEASVWINAATQVCFSLGVGFGVLIAFSSYNKFTNNCYRDAIVTTSINSLTSFSSGFVVFSFLGYMAQKHSVPIGDVAKDGPGLIFIIYPEAIATLPLSSAWAVVFFIMLLTLGIDSAMGGMESVITGLIDEFQLLHRHRELFTLFIVLATFLLSLFCVTNGGIYVFTLLDHFAAGTSILFGVLIEAIGVAWFYGVGQFSDDIQQMTGQRPSLYWRLCWKLVSPCFLLFVVVVSIVTFRPPHYGAYIFPDWANALGWVIATSSMAMVPIYAAYKFCSLPGSFREKLAYAIAPEKDRELVDRGEVRQFTLRHWLKV"}, "B3": {"name": "hDAT: human dopamine transporter expressed from tricistronic construct RQR8.2A.aCD19.2A.hDAT_opt (protein)", "chain": "B2 Sodium-dependent dopamine … with N313D", "modifications": "hDAT protein sequence"}}, "key": {"hDAT [1]": {"target": "T1, hDAT (Homo sapiens, UniProt Q01959)", "T1 construct": "expressed in transfected cells; host or cells: SupT1 human T-cell line, retrovirally transduced with SFG.hDAT.I.CD34 (co-transduced with FLuc for in vivo work)", "T1 sequence (Q01959 whole entry)": "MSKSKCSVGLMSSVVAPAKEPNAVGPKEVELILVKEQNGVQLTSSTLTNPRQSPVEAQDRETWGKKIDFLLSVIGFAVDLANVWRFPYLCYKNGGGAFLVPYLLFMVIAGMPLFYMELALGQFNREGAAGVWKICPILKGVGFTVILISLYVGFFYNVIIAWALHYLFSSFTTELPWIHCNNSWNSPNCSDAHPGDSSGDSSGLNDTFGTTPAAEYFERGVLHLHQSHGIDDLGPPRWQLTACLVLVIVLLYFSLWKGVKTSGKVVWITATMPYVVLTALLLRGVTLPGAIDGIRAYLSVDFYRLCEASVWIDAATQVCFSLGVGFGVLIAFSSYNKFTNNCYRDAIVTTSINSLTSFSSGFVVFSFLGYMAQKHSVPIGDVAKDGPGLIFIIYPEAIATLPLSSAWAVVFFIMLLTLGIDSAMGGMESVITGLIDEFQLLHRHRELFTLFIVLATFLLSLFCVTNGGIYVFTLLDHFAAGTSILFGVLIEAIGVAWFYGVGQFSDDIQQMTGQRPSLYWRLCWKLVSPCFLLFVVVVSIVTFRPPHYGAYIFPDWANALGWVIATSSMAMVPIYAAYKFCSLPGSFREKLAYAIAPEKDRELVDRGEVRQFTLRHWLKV", "experiment": "In vitro radiosubstrate binding assay, hDAT expressing T-cells", "method": "(§1) Reporter protein binding capabilities was assessed in a method previously described. Briefly, 1×10^6 all hDAT expressing T-cells and the non-transduced control cells were incubated at 37° C. with 7.4 kBq ^123I-FP-CIT (GE, Healthcare) for 30 mins. At each time point, cells were rapidly washed twice with 500 μL ice-cold PBS and the supernatant collected. Cell pellets were re-suspended in 1 mL PBS. ^123I-FP-CIT binding in cells and medium was measured using a gamma counter (WIZARD^2, PerkinElmer, UK). To determine the non-specific binding of the ^123I-FP-CIT in hDAT (+) cells, transduced cells and non-transduced cells were incubated with 50 μM of β-CIT-FP (ABX) for 5 min. ^123I-FP-CIT cells were subsequently prepared for gamma counting as mentioned above. All experiments were performed in triplicates and repeated ≥twice. All results are given as mean±standard deviation of the mean (SD). The data was analysed using one way analysis of variance (ANOVA) followed by the Tukey's HSD test with the IBM SPSS software."}, "[2]": {"tested_on": "control non-transduced (NT) SupT1 cells", "experiment": "In vitro radiosubstrate binding assay, non-transduced control cells", "design": "species or system human", "conditions": "7.4 kBq, 37° C., 30 min", "method": "as §1"}, "hDAT [3]": {"target": "T1, hDAT", "experiment": "SPECT/CT imaging of hDAT-positive brain xenografts in NSG mice", "format": "in vivo", "conditions": "for specific to non-specific binding ratio hDAT: cerebellum: NSG mice n=4", "method": "All animal procedures were carried out in accordance with the UK Animals (Scientific Procedures) 1986 Act and institutional ethics regulation. NSG mice were bred in-house and kept according to institutional guidelines. Male mice 6-10 weeks old were injected with 2 mg/kg body weight of 5% carprofen (Norbrook) and anaesthetised with 3-5% Isoflurane (ABBOTT, UK) in an induction chamber. Animals were placed in a stereotactic frame (David Kopf Instruments) with an anaesthesia head holder to deliver 3% isoflurane. A sagittal incision over the parieto-occipital bone using a sterile scalpel (Swann Morton Ltd) was made and a blunt ended Hamilton (75N, 26s/2″/2′5 ul) syringe with SupT1/hDAT.I.CD34 was placed 1.5 mm lateral and 1 mm anterior of bregma. The needle was lowered 4 mm in the brain through a burr hole and retracted 1 mm to create a small reservoir where the cells (1×10^4 in a 3 μl volume) were injected.\n(§2) Animals were administered with 1.5 mmol/kg of the thyroid blocking agent potassium perchlorate (Sigma Aldrich, USA) intraperitoneally one hour prior to imaging. Animals were imaged with a NanoSPECT/CT small animal in vivo scanner (Mediso, Hungary) consisting of a rotating double headed camera (company, country). 1.2 mm pinhole mouse apertures were used. Imaging was performed under isoflurane (1.5-2%) and the body temperature was maintained at 37° C. using a heated animal bed (Minerve, France). For the kinetic study, animals were administered with an average of 17.25±1.22 MBq of ^123I-FP-CIT i.v. and 15 min. brain scans were acquired day 25 post tumour inoculation at 15 min. 2 h, 4 h, 6 h and 8 h. Images were reconstructed using HiSPECT software (InviCRO, USA) and image processing analysis was performed (VivoQuant Software; InviCRO, USA).\nTime activity profiles were generated evaluate the hDAT reporter system in vivo. Regions of interest (ROIs) for the hDAT expressing xenografts, cerebellum (chose background region) and striatum were drawn on the SPECT/MR/CT coregistered data. The percentage in injected dose per mm^3 (% ID/mm^3) was calculated by; injected dose (MBq)/counts in the whole body (MBq)/volume of the ROI (mm^3) to determine the peak uptake time and the optimum imaging window. A method based on the striatal binding ratio was utilised to determine specific-to-nondisplaceable binding ratios previously described as indicative of the binding potential at the time of binding equilibrium^6,7. The binding ratios were calculated by determining the mean counts per pixel in the specific region (hDAT expressing xenograft for the hDAT: cerebellum and hDAT: striatum ratios) divided by the mean counts per pixel in the nonspecific region."}, "DAT": {"target": "T2, DAT (Mus musculus, UniProt Q61327)", "T2 construct": "the striatum (region with high endogenous expression of DAT); from tissue; host or cells: striatum of living NSG mice (in vivo SPECT)", "T2 sequence (Q61327 whole entry)": "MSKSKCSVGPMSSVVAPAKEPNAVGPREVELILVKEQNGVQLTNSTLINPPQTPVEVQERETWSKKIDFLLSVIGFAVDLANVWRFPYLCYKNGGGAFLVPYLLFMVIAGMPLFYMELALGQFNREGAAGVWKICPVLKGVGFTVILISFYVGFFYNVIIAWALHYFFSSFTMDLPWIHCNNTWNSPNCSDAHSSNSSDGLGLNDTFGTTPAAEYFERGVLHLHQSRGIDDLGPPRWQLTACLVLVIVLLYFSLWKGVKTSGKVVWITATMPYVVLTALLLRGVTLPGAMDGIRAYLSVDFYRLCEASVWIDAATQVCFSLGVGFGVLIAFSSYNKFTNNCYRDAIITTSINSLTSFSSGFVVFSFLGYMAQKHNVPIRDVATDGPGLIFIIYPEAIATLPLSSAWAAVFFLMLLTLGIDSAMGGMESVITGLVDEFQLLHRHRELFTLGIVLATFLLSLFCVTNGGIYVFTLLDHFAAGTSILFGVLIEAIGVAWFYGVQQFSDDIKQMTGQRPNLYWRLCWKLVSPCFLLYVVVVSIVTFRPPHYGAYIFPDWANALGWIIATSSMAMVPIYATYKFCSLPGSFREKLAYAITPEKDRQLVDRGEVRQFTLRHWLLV", "experiment": "SPECT/CT imaging of striatum (endogenous DAT) in NSG mice", "format": "in vivo", "conditions": "NSG mice n=4", "method": "as §2\nTime activity profiles were generated evaluate the hDAT reporter system in vivo. […] The percentage in injected dose per mm^3 (% ID/mm^3) was calculated by; injected dose (MBq)/counts in the whole body (MBq)/volume of the ROI (mm^3) to determine the peak uptake time and the optimum imaging window. […] The binding ratios were calculated by determining the mean counts per pixel in the specific region (hDAT expressing xenograft for the hDAT: cerebellum and hDAT: striatum ratios) divided by the mean counts per pixel in the nonspecific region."}, "[4]": {"tested_on": "non-transduced SupT1 cells", "experiment": "SPECT imaging of control animals injected with non-transduced SupT1 cells", "format": "in vivo, mouse", "conditions": "intracranially injected non-transduced SupT1 cells", "method": "as §2"}, "hDAT [5]": {"target": "T1, hDAT", "experiment": "PET/CT imaging of hDAT positive cells in mouse brain", "format": "in vivo", "conditions": "i.v.", "method": "Animals were administered with 1.5 mmol/kg of the thyroid blocking agent potassium perchlorate (Sigma Aldrich, USA) intraperitoneally one hour prior to imaging. Animals were imaged with a PET/CT small animal in vivo scanner (Mediso, Hungary). Imaging was performed under isoflurane (1.5-2%) and the body temperature was maintained at 37° C. using a heated animal bed (Minerve, France). Four weeks post tumour inoculation, animals were administered with 5 MBq of ^18F-FP-CIT i.v. and brain scans were acquired 30 min post injection. A high-resolution CT was acquired immediately following […] imaging. Images were reconstructed using HiSPECT software (InviCRO, USA) and image processing analysis was performed (VivoQuant Software; InviCRO, USA)."}, "[6]": {"experiment": "Binding of 123I-FP-CIT by hDAT and hDAT variant proteins from different constructs", "conditions": "for binding of [123I]-FP-CIT by hDAT variant: compared to wild-type hDAT, FIG. 7", "method": "as §1"}, "[7]": {"conditions": "after 4 h post i.v. injection (constant)"}}, "note": "Residue numbers refer to the chain shown, from its start. Names may count otherwise. “And” between values parts separate entries of the source, which are not always exact repeats. Equal values may be shown once. “Also recorded” adds a separate entry of the source.", "data": [{"molecule": "COC(=O)[C@H]1[C@@H](c2ccc(I)cc2)C[C@@H]2CC[C@H]1N2CCCF", "note": "[[I]-FP-CIT]", "values": [{"measurement": "% [123I]-FP-CIT binding in the presence of [I]-FP-CIT", "setting": "hDAT [1]; SupT1/SFG.hDAT.I.CD34 cells co-incubated with cold compound, 50 μM", "value": "1.10±0.22", "unit": "%"}, {"measurement": "fold reduction of [123I]-FP-CIT binding in the presence of [I]-FP-CIT", "setting": "hDAT [1]; SupT1/SFG.hDAT.I.CD34 cells, cold compound 50 μM, p<0.001", "value": 32, "unit": "fold"}, {"measurement": "inhibition of [123I]-FP-CIT binding by cold compound (in words)", "setting": "hDAT [1]; hDAT positive T-cells, co-incubation with cold compound 50 μM", "value": "complete binding inhibition; also recorded: completely abolished"}]}, {"molecule": "COC(=O)[C@H]1[C@@H](c2ccc(I)cc2)C[C@@H]2CC[C@H]1N2CCCF", "note": "[[^123I]-FP-CIT, [I-^123] N-ω-fluoropropyl-2β-carbomethoxy-3β-(4-iodophenyl) nortropane]", "values": [{"measurement": "percentage [123I]-FP-CIT binding", "setting": "[2]", "value": "1.41±0.40", "unit": "%"}, {"measurement": "percentage [123I]-FP-CIT binding", "setting": "hDAT [1]; SupT1/SFG.hDAT.I.CD34 cells, 7.4 kBq, 37° C., 30 min", "value": "35.10±5.24", "unit": "%"}, {"measurement": "fold greater % [123I]-FP-CIT binding in SupT1/SFG.hDAT.I.CD34 compared to control cells", "setting": "hDAT [1]; hDAT cells vs non-transduced SupT1 cells", "value": "25 fold and 27 fold"}, {"measurement": "specific to non-specific binding ratio hDAT: cerebellum", "setting": "hDAT [3]; 2 h post i.v. injection (peak)", "value": "5.73±1.75"}, {"measurement": "optimum imaging time post injection", "setting": "hDAT [3]; SupT1/SFG.hDAT.I.CD34 xenografts, SPECT", "value": 2, "unit": "h"}, {"measurement": "specific to non-specific binding ratio hDAT: cerebellum", "setting": "hDAT [3]; [7]", "value": "4.09±0.38"}, {"measurement": "co-localisation of SPECT signal with MR contrast at xenograft site", "setting": "hDAT [3]; co-registered SPECT-MR-CT, 2 h post i.v. injection", "value": "good co-localisation; also recorded: good correlation"}, {"measurement": "time post radiotracer injection at which hDAT-positive xenografts were visualised by SPECT", "setting": "hDAT [3]; dynamic SPECT at 15 min, 2 h, 4 h, 6 h", "value": "as early as 15 min and up to 6 hr"}, {"measurement": "specific to non-specific binding ratio striatum: cerebellum", "setting": "DAT; 2 h post i.v. injection (peak)", "value": "6.56±2.40"}, {"measurement": "specific to non-specific binding ratio striatum: cerebellum", "setting": "DAT; [7]", "value": "4.08±0.60"}, {"measurement": "SPECT signal in control animals", "setting": "[4]", "value": "non-detectable"}]}, {"molecule": "COC(=O)[C@H]1[C@@H](c2ccc(I)cc2)C[C@@H]2CC[C@H]1N2CCC[18F]", "note": "[^18F-FP-CIT, [^18F] fluoropropyl-carbomethoxy-iodophenyl-nortropane]", "values": [{"measurement": "detection of hDAT positive cells by PET/CT", "setting": "hDAT [5]", "value": "could also be detected"}]}, {"molecule": "RQR8-hDAT: hDAT tagged with RQR8", "values": [{"measurement": "binding of [123I]-FP-CIT by hDAT variant", "setting": "[6]", "value": "increased levels"}]}, {"molecule": "B1", "values": [{"measurement": "binding of [123I]-FP-CIT by hDAT variant", "setting": "[6]", "value": "able to bind"}]}, {"molecule": "B2", "values": [{"measurement": "binding of [123I]-FP-CIT by hDAT variant", "setting": "[6]", "value": "increased levels"}]}, {"molecule": "B3", "values": [{"measurement": "binding of [123I]-FP-CIT by hDAT co-expressed with CD19 CAR", "setting": "[6]; hDAT expressed from CD19 CAR-hDAT tricistronic construct, FIG. 8C", "value": "able to bind"}]}]}
